Reference: publication PMC8977642, “Unsupervised Mining of HLA-I Peptidomes Reveals New Binding Motifs and Potential False Positives in the Community Database” (Frontiers in Immunology, 2022)

Target: HLA-B*14:02 (Homo sapiens, UniProt P01889, A93T/A95T/C349S/D138N/D201E/E187T/E204Q/H137Y/K202T/Q94N/R155S/R180L/S121W/S35A/Y140F/Y195H/Y91C)
Assay: REVEAL MHC-peptide binding assay (ProImmune)
Conditions: for Binding Test (binding activity as percentage of positive control): relative to a known high-affinity T cell epitope for HLA-B*14:02, synthesized peptides, standard error 3 percentage points; for HLA binding activity (in words): REVEAL MHC-peptide binding assay, versus positive control
From the text: To test whether outlier peptides identified by unsupervised motif clustering are false positives or true ligands with very weak binding affinity, we performed an HLA binding assay on 59 newly identified antigens for HLA-B*14:02 ( Supplementary Table 3 , 13 outliers and 46 non-outlier peptides). […] For LPFCRPGPEGQL, this peptide was likely called an outlier because the middle arginine residue was not predicted to take part in the 9-mer binding motif by NetMHCpan (the predicted core motif was LPFGPEGQL).
Figure 3 HLA binding assay for HLA-B*14:02. Peptide synthesis and binding assay were performed by ProImmune, Ltd. (see Methods). (A) Distributions of binding scores, measured as the percentages of the binding activity compared to a positive control, for clustered peptides (n = 46) and outlier peptides (n = 13). (B) Comparison of predicted percentage ranks of eluted ligand (% rank) and binding scores. The orange and red dashed lines indicate the 2% rank and 0.5% rank thresholds for weak and strong binders, respectively.
The binding activities of selected 59 newly identified candidate antigens for HLA-B*14:02 ( Supplementary Table 3 ) were assessed using the REVEAL MHC-peptide binding assay provided by ProImmune, Ltd. (Oxford, UK). Peptides were synthesized and quality checked using MALDI-TOF mass spectrometry by ProImmune, Ltd. (Oxford, UK). Binding activities were reported as percentage relative to the affinity of a positive control (a known high-affinity T cell epitope for HLA-B*14:02). According to the experiment report provided by the company, the standard error of the reported affinities is 3 percentage points.

IHTLVESL [candidate antigen for HLA-B*14:02, non-outlier]
Binding Test (binding activity as percentage of positive control): 0.2%

LNQRAQAVL [candidate antigen for HLA-B*14:02, outlier]
Binding Test (binding activity as percentage of positive control): 3.1%

SPTCHACL [candidate antigen for HLA-B*14:02, non-outlier]
Binding Test (binding activity as percentage of positive control): 19.8%

FGYSRHTPF [candidate antigen for HLA-B*14:02, non-outlier]
Binding Test (binding activity as percentage of positive control): 24.8%

QQILRDAL [candidate antigen for HLA-B*14:02, non-outlier]
Binding Test (binding activity as percentage of positive control): 56.2%

DNAVHCVI [candidate antigen for HLA-B*14:02, non-outlier]
Binding Test (binding activity as percentage of positive control): 26.2%

SSSKGSLGGGF [candidate antigen for HLA-B*14:02, non-outlier]
Binding Test (binding activity as percentage of positive control): 0.2%

LRNGGHFVI [candidate antigen for HLA-B*14:02, outlier]
HLA binding activity (in words): high binding affinity | Binding Test (binding activity as percentage of positive control): 61.2%

CEVTHQGL [candidate antigen for HLA-B*14:02, non-outlier]
Binding Test (binding activity as percentage of positive control): 25.4%

LNVLHLDT [candidate antigen for HLA-B*14:02, non-outlier]
Binding Test (binding activity as percentage of positive control): 5%

LPIIHCTL [candidate antigen for HLA-B*14:02, non-outlier]
Binding Test (binding activity as percentage of positive control): 56.4%

REQFSSRGS [candidate antigen for HLA-B*14:02, outlier]
Binding Test (binding activity as percentage of positive control): 0%

LGFTHHCL [candidate antigen for HLA-B*14:02, non-outlier]
Binding Test (binding activity as percentage of positive control): 47.6%

YQILHECL [candidate antigen for HLA-B*14:02, non-outlier]
Binding Test (binding activity as percentage of positive control): 50.1%

SCRVHKII [candidate antigen for HLA-B*14:02, non-outlier]
Binding Test (binding activity as percentage of positive control): 8.3%

QQGTHLSL [candidate antigen for HLA-B*14:02, non-outlier]
Binding Test (binding activity as percentage of positive control): 47.7%

TRIEKRIVI [candidate antigen for HLA-B*14:02, non-outlier]
Binding Test (binding activity as percentage of positive control): 54.9%

DQFLKICL [candidate antigen for HLA-B*14:02, non-outlier]
Binding Test (binding activity as percentage of positive control): 62.6%

DQVGGLGR [candidate antigen for HLA-B*14:02, non-outlier]
Binding Test (binding activity as percentage of positive control): 0.2%

CQVTHISL [candidate antigen for HLA-B*14:02, non-outlier]
Binding Test (binding activity as percentage of positive control): 56.7%

AAPARVSVA [candidate antigen for HLA-B*14:02, outlier]
Binding Test (binding activity as percentage of positive control): 0.2%

AVSMIPPLLL [candidate antigen for HLA-B*14:02, outlier]
Binding Test (binding activity as percentage of positive control): 0.2%

LTGDIHAITAA [candidate antigen for HLA-B*14:02, outlier]
Binding Test (binding activity as percentage of positive control): 0.2%

TYDDATKTF [candidate antigen for HLA-B*14:02, outlier]
Binding Test (binding activity as percentage of positive control): 0.1%

QPAEHLQL [candidate antigen for HLA-B*14:02, non-outlier]
Binding Test (binding activity as percentage of positive control): 49.4%

CRFEGQFSI [candidate antigen for HLA-B*14:02, non-outlier]
Binding Test (binding activity as percentage of positive control): 63.5%

ESGPSIVHRKCF [candidate antigen for HLA-B*14:02, outlier]
Binding Test (binding activity as percentage of positive control): 0.1%

SQYQRLLCI [candidate antigen for HLA-B*14:02, non-outlier]
Binding Test (binding activity as percentage of positive control): 80.3%

QGLSILLPKI [candidate antigen for HLA-B*14:02, outlier]
Binding Test (binding activity as percentage of positive control): 0%

LSYVSIMAAI [candidate antigen for HLA-B*14:02, non-outlier]
Binding Test (binding activity as percentage of positive control): 0.2%

NQFQRQAAV [candidate antigen for HLA-B*14:02, non-outlier]
Binding Test (binding activity as percentage of positive control): 63.6%

LLSPQQTI [candidate antigen for HLA-B*14:02, non-outlier]
Binding Test (binding activity as percentage of positive control): 0.8%

DRYLPGETF [candidate antigen for HLA-B*14:02, non-outlier]
Binding Test (binding activity as percentage of positive control): 61.4%

QTWWHGVL [candidate antigen for HLA-B*14:02, non-outlier]
Binding Test (binding activity as percentage of positive control): 74.6%

LPFCRPGPEGQL [candidate antigen for HLA-B*14:02, outlier]
HLA binding activity (in words): high binding affinity | Binding Test (binding activity as percentage of positive control): 75.9%

QVWGTLTSL [candidate antigen for HLA-B*14:02, non-outlier]
Binding Test (binding activity as percentage of positive control): 0.1%

GLGILDPVLL [candidate antigen for HLA-B*14:02, non-outlier]
Binding Test (binding activity as percentage of positive control): 0.1%

QQFAHPPL [candidate antigen for HLA-B*14:02, non-outlier]
Binding Test (binding activity as percentage of positive control): 82.8%

LPFCHSEL [candidate antigen for HLA-B*14:02, non-outlier]
Binding Test (binding activity as percentage of positive control): 60.2%

DQYKRETI [candidate antigen for HLA-B*14:02, non-outlier]
Binding Test (binding activity as percentage of positive control): 33.9%

QQLCHQTL [candidate antigen for HLA-B*14:02, non-outlier]
Binding Test (binding activity as percentage of positive control): 56.8%

DLPEHAVL [candidate antigen for HLA-B*14:02, non-outlier]
Binding Test (binding activity as percentage of positive control): 14.2%

PLGMNQLQAL [candidate antigen for HLA-B*14:02, non-outlier]
Binding Test (binding activity as percentage of positive control): 0.3%

QAYMNQRKL [candidate antigen for HLA-B*14:02, non-outlier]
Binding Test (binding activity as percentage of positive control): 0.2%

ETASDLLLHSAL [candidate antigen for HLA-B*14:02, non-outlier]
Binding Test (binding activity as percentage of positive control): 59.3%

VAPGKDLTK [candidate antigen for HLA-B*14:02, non-outlier]
Binding Test (binding activity as percentage of positive control): 0%

HPASHPEL [candidate antigen for HLA-B*14:02, non-outlier]
Binding Test (binding activity as percentage of positive control): 29.9%

CVTIHEAL [candidate antigen for HLA-B*14:02, non-outlier]
Binding Test (binding activity as percentage of positive control): 32.1%

AQGGVLPNI [candidate antigen for HLA-B*14:02, outlier]
Binding Test (binding activity as percentage of positive control): 0.2%

IRLENEIQ [candidate antigen for HLA-B*14:02, non-outlier]
Binding Test (binding activity as percentage of positive control): 0.1%

CHIYHHAL [candidate antigen for HLA-B*14:02, non-outlier]
Binding Test (binding activity as percentage of positive control): 55.5%

SRLDSVLLL [candidate antigen for HLA-B*14:02, non-outlier]
Binding Test (binding activity as percentage of positive control): 43.9%

HQITHQAM [candidate antigen for HLA-B*14:02, non-outlier]
Binding Test (binding activity as percentage of positive control): 52.4%

LSSLSLPILI [candidate antigen for HLA-B*14:02, outlier]
Binding Test (binding activity as percentage of positive control): 0.1%

TYDDATKTFTVTE [candidate antigen for HLA-B*14:02, non-outlier]
Binding Test (binding activity as percentage of positive control): 0%

QEVKQGKLL [candidate antigen for HLA-B*14:02, non-outlier]
Binding Test (binding activity as percentage of positive control): 0.1%

CDFVHQAL [candidate antigen for HLA-B*14:02, non-outlier]
Binding Test (binding activity as percentage of positive control): 41.7%

YATLHHVI [candidate antigen for HLA-B*14:02, non-outlier]
Binding Test (binding activity as percentage of positive control): 42.2%
